From patent US10473670B2 (University of Kentucky Research Foundation, priority 2016, dated 2019)
“Also recorded” adds a separate entry of the source.

Key:
[1] = test system: C57BL/6 mice; assay: Acute SR 48692 treatment: proximal intestinal TG content after olive oil gavage; format: in vivo; details: 2.5 mg/kg ip 30 min before olive oil gavage
Source text: (§1) FIGS. 13A-D show graphs and images illustrating that NT promotes intestinal cell lipid absorption or accumulation, while NT deficiency reduces intestinal lipid absorption A. Proximal intestines from mice given saline, olive oil, or olive oil+SR 48692 were collected and TG levels quantified as described above (n=8). Graph presents the fold change vs. control mice. * p<0.05 vs. control mice; † p<0.05 vs. mice with olive oil only. B. Male NT^+/+ and NT^−/− mice (n=4) on normal chow were fasted overnight. Mice were injected with either saline or SR 48692 (2.5 mg/kg, i.p). Thirty min after the injection, mice were given olive oil (10 μl/g) by oral gavage and then sacrificed. The proximal small bowel was excised and TG content measured. *p<0.05 vs. saline in NT^+/+ and NT^−/− mice; † p<0.05 vs. olive oil only in NT^+/+ mice; ‡ p<0.05 vs. olive oil only in NT^+/+ mice. C. Weekly body weight was measured in male wild type C57BL/6 mice fed HFD and treated with SR 48692 (2.5 mg/kg diluted in diH2O and administered by oral gavage twice a day) or vehicle (vehicle n=12; SR 48692 n=13). BW slopes were compared: * p<0.05 vehicle vs. SR treatment. D. Weekly food intake was measured in male wild type C57BL/6 mice (n=12-13) fed HFD and chronically treated with either SR 48692 or vehicle. […] All data are mean+/−SD. […]

[2] = test system: NT^+/+ and NT^−/− mice; assay: Acute SR 48692 treatment repeated in NT+/+ and NT-/- mice: proximal intestinal TG; format: in vivo; details: 2.5 mg/kg ip 30 min before olive oil
Source text: as §1

[3] = test system: C57BL/6 mice; assay: Chronic SR 48692 treatment of HFD-fed mice: body weight and food intake; format: in vivo; details: wild type mice fed HFD
Source text: FIGS. 13A-D show graphs and images illustrating that NT promotes intestinal cell lipid absorption or accumulation, while NT deficiency reduces intestinal lipid absorption A. Proximal intestines from mice given saline, olive oil, or olive oil+SR 48692 were collected and TG levels quantified as described above (n=8). Graph presents the fold change vs. control mice. * p<0.05 vs. control mice; † p<0.05 vs. mice with olive oil only. B. Male NT^+/+ and NT^−/− mice (n=4) on normal chow were fasted overnight. Mice were injected with either saline or SR 48692 (2.5 mg/kg, i.p). Thirty min after the injection, mice were given olive oil (10 μl/g) by oral gavage and then sacrificed. The proximal small bowel was excised and TG content measured. *p<0.05 vs. saline in NT^+/+ and NT^−/− mice; † p<0.05 vs. olive oil only in NT^+/+ mice; ‡ p<0.05 vs. olive oil only in NT^+/+ mice. C. Weekly body weight was measured in male wild type C57BL/6 mice fed HFD and treated with SR 48692 (2.5 mg/kg diluted in diH2O and administered by oral gavage twice a day) or vehicle (vehicle n=12; SR 48692 n=13). […] D. Weekly food intake was measured in male wild type C57BL/6 mice (n=12-13) fed HFD and chronically treated with either SR 48692 or vehicle. […]
All procedures were approved by the Institutional Animal Care and Use Committee of the University of Kentucky. […] Body weight and food intake were measured weekly. […]

[4] = test system: AMPK; assay: Western blot of p-AMPK in proximal intestinal mucosa after olive oil gavage; format: in vivo; details: mice after olive oil gavage, with or without SR 48692 pretreatment
Experimental: FIGS. 2A-M includes images and graphs illustrating NT deficiency reduces intestinal lipid absorption. A. (left panel) Fecal triglyceride (TG) was analyzed in male mice fed a high-fat diet (HFD) for 24 wks (n=3); * p=0.05 vs NT^+/+ mice; (right panel) Fecal weight was measured in male NT^+/+ and NT^−/− mice (n=7-9) fed either normal chow (NC) or HFD for 24 wks; there was no significant difference between genotypes. B. Oil red O (ORO) staining of proximal intestines from male mice (6-mo-old) under normal chow fed with or without olive oil by gavage after overnight fasting (n=3). C. Levels of ^13C18-oleic acid (OA) in male mice (5-mo-old) under normal chow fed with ^13C18-OA mixed in olive oil by gavage after an overnight fast was analyzed by nanospray FT-MS (n=3-4). Left panel, * p<0.05 vs. NT^+/+ mice. […] D. ORO staining of proximal intestines from male mice (5-mo-old) following gavage with or without olive oil plus NT after an overnight fast (left panel); TG was quantified (right panel) (n=5). * p<0.05 vs. Saline in NT^+/+ and NT^−/− mice, respectively; † p<0.05 vs. olive oil in NT^−/− mice; ‡ p<0.05 vs. olive oil in NT^+/+ mice. […] Densitometric quantification of p-AMPK was normalized to total AMPK and is presented as fold change vs. p-AMPK in NT^+/+ (right panel, n=9). * p<0.05 vs. NT^+/+. F. Protein extracts from mucosal scrapings of samples were analyzed by western blotting (left panel). […]

[5] = test system: mTORC1 and ERK1/2 signaling; assay: Western blot of p-S6K1 and p-ERK1/2 in BON cells; format: cell-based, human; details: pretreatment with CC 10 μM, AICAR 1 mM 3 h
Experimental: FIGS. 16A-D show graphs and images illustrating Cross-talk of AMPK and mTORC1 signaling. A. Diagram of cross-talk of AMPK and mTORC1 signaling. B. Western blot analysis of BON cells treated with or without AICAR (left panel) or 1 mM AICAR and CC (10 μM) (right panel) for 3 h. C. NT EIA (upper panel) and western blotting (lower panel) on BON cells expressing control vector and myc-raptor S722A/S792A treated with AICAR (1 mM) for 3 h. D. NT EIA (upper panel) and western blotting (lower panel) on BON cells expressing control vector and NTC and TSC2 siRNA treated with AICAR (1 mM) for 3 h. *p<0.05 vs. control in vector, †p<0.05 vs. AICAR in vector (C); *p<0.05 vs. control in NTC siRNA, †p<0.05 vs. control in NTC siRNA, ‡ p<0.05 vs. AICAR in NTC siRNA (D). n=6. All data are mean+/−SD.
AMPK activation inhibits mTORC1 through raptor, a component of mTORC1, or TSC2, a negative regulator of mTORC1 signaling. […] Moreover, a stable BON overexpression cell line was generated with a mutant raptor vector in which both Ser722 and Ser792 (AMPK phosphorylation sites) are replaced by alanine. […] Together, these findings further indicate the interaction of AMPK, mTORC1 and ERK signaling in the regulation of NT secretion.

[6] = test system: AMPK; assay: Western blot of p-AMPK in FHs 74 Int cells; format: cell-based, human; details: FHs 74 Int cells treated with oleate 1 h
Experimental: (§2) G. Human small intestinal cells (FHs74Int) (left panel) and RIE-1 cells (right panel) were treated with the indicated concentrations of oleate for 1 h and lysates were analyzed by western blotting. […] All data are mean+/−SD. Experiments in vitro were at least repeated three times.
(§3) Tissues and cells were lysed with lysis buffer (Cell Signaling Technology), and equal amounts of protein were resolved on 4-12% NuPAGE BisTris gels (Life Technologies) and electrophoretically transferred to polyvinylidene difluoride (PVDF) membranes; the membranes were incubated with primary antibodies overnight at 4° C. followed by secondary antibodies conjugated with horseradish peroxidase. Membranes were developed using chemiluminescence (ECL) Western Blotting System from GE Healthcare Life Science (Piscataway, N.J.) and Thermo Scientific (Waltham, Mass.).

[7] = test system: AMPK; assay: Western blot of p-AMPK in RIE-1 cells; format: cell-based, rat; details: RIE-1 cells treated with oleate 1 h
Experimental: as §2
All data are mean+/−SD. Experiments were repeated at least three times.
as §3

[8] = test system: STC-1 cells; assay: NT release from STC-1 cells (NT EIA); format: cell-based, mouse; details: OA 0.25 mM, phorbol myristate acetate 100 nM
Source text: FIGS. 15A-B show graphs and images illustrating that FFAR1 and FFAR4 agonists increase AMPK activity. A. NT IF (left panel), NT EIA (middle panel, *p<0.05 vs. control) and western blotting (right panel) of STC-1 cells. B. Real-time PCR. GAPDH was used as the internal control (BON cell expression was arbitrarily set at 1). All data are mean+/−SD.
FFAR1 (previously known as GPR40) and FFAR4 (previously known as GPR120) are medium- to long-chain FFA G-protein-coupled receptors that have been implicated in the regulation of energy homeostasis and hormone secretion.

## COc1cccc(OC)c1-c1cc(C(=O)NC2(C(=O)O)C3CC4CC(C3)CC2C4)nn1-c1ccnc2cc(Cl)ccc12 (stereo not shown) [SR 48692]
[1]
  intestinal FA absorption following olive oil gavage (proximal intestine TG): decreased intestinal FA absorption
[2]; NT-/- mice
  lipid absorption after olive oil administration: did not further decrease lipid absorption
[2]; wild type (NT+/+) mice
  intestinal FA absorption (as measured by TG accumulation): inhibited intestinal FA absorption
[3]; 2.5 mg/kg oral gavage twice a day for 13 weeks
  body weight gain: significantly attenuated body weight gain
[3]; 2.5 mg/kg oral gavage twice a day, 2.5 mg/kg
  food intake (cumulative and weekly): without altering food intake; also recorded: did not show a significant difference
[4]
  p-AMPK expression in proximal intestine: restored the p-AMPK expression to control levels

## c1cc(-c2cnn3cc(-c4ccc(OCCN5CCCCC5)cc4)cnc23)ccn1 [compound C]
[5]
  effect of AICAR on p-S6K1 and p-ERK1/2: attenuated this effect

## CCCCCCCC/C=C\CCCCCCCC(=O)[O-].[Na+] [oleate, Oleate sodium]
[6]
  p-AMPK: led to an increase in p-AMPK
[7]
  p-AMPK: led to an increase in p-AMPK

## CCCCCCCCCCCCCC(=O)O[C@@H]1[C@@H](C)[C@@]2(O)[C@@H](C=C(CO)C[C@]3(O)C(=O)C(C)=C[C@@H]23)[C@@H]2C(C)(C)[C@]12OC(C)=O [phorbol myristate acetate]
[8]
  NT release: stimulated NT release
